Some test systems named below: BT-549 breast; NCI-H522 lung; SF-268 CNS; SF-295 CNS; RXF 393 renal; U251 CNS; OVCAR-3 ovarian; SK-MEL-28 melanoma; UO-31 renal; CCRF-CEM leukemia.
Holding throughout (assay): growth of human tumour cells (NCI), 48 h

“And” between values parts separate entries of the source, which are not always exact repeats. Equal entries are not always repeated.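 Tested at 5 concentrations; 48 h exposure; 96-well plates; endpoints linearly interpolated, else capped at highest concentration. GI50: concentration for 50% inhibition of growth. TGI: concentration producing complete growth inhibition.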 *1 amine or outer side, *2 acyl side, *3 side chain or, on linkers, in order; H or OH if unused. Where a SMILES comes first, the peptide text is derived from it. Bridges are numbered along the chain shown (N, C = ends). Roman numbers before positions name the chains, in order. [ ]: non-standard residue; d: D form. Actinocin(9to1) = Cc1c2oc3c(C)ccc(C(=O)[*:1])c3nc-2c(C(=O)[*:2])c(N)c1=O; NMeF = CN[CH](Cc1ccccc1)C(=O)O; Sar = CNCC(=O)O A value given as a limit tells only on which side of the number the result lay.

For `COc1c(B(O)O)cc(F)cc1-c1nc2ccc3[nH]ncc3c2c2c1CCCC2`, the GI50 in the test on BT-549 breast was 0.044 µM; in the test with NCI-H522 lung, 1.03 µM; in the test with SF-268 CNS, 1.42 µM; with SF-295 CNS it was 1.76 µM; in the test on RXF 393 renal, less than 0.01 µM; in the test on U251 CNS, 1.6 µM. Moreover, the GI50 was 2.95 µM in the test with OVCAR-3 ovarian, 2.69 µM in the test with SK-MEL-28 melanoma, 0.045 µM in the test with UO-31 renal and 0.53 µM in the test on CCRF-CEM leukemia. Also, the TGI stood at 1.76 µM in the test with BT-549 breast; 11.7 µM with NCI-H522 lung; 10.5 µM in the test with SF-268 CNS; 10.8 µM in the test on SF-295 CNS; 0.294 µM with RXF 393 renal; 13.1 µM in the test with U251 CNS. Besides, the TGI with OVCAR-3 ovarian is 10.2 µM; with SK-MEL-28 melanoma, 8.47 µM; with UO-31 renal, 9.21 µM; in the test with CCRF-CEM leukemia, more than 38.6 µM.

On to `Cc1c(Cl)cccc1NC(=O)c1sc2nc3c(cc2c1N)CCCCC3`, for which the GI50 is 0.252 µM in the test with BT-549 breast; 0.187 µM with NCI-H522 lung; 0.426 µM in the test on SF-268 CNS; 0.17 µM with SF-295 CNS; 0.217 µM with RXF 393 renal; 0.281 µM with U251 CNS. In addition, the GI50 with OVCAR-3 ovarian is 0.173 µM; in the test on SK-MEL-28 melanoma it was 1.22 µM; with UO-31 renal, 1.65 µM; with CCRF-CEM leukemia, 0.257 µM. Further, the TGI in the test with BT-549 breast was more than 50 µM; in the test on NCI-H522 lung it was 42.3 µM; with SF-268 CNS, more than 50 µM; with SF-295 CNS it was 10 µM; with RXF 393 renal, 5.57 µM; in the test with U251 CNS it was 15.8 µM. The TGI was 1.69 µM with OVCAR-3 ovarian, more than 50 µM with SK-MEL-28 melanoma, more than 50 µM with UO-31 renal and more than 50 µM in the test on CCRF-CEM leukemia.

In the case of `Cc1c([N+](=O)[O-])oc2ccc3ccccc3c12`, the TGI in the test on BT-549 breast is more than 100 µM; in the test with NCI-H522 lung, 41.9 µM; in the test with SF-268 CNS it was more than 100 µM; in the test on SF-295 CNS it was more than 100 µM; in the test on RXF 393 renal, more than 100 µM; with U251 CNS it was more than 100 µM. Further, the TGI in the test on OVCAR-3 ovarian, with SK-MEL-28 melanoma, in the test on UO-31 renal and in the test with CCRF-CEM leukemia was more than 100 µM in each case.

Consider `C=C1C(=O)O[C@H]2[C@H]1CC/C(COC(=O)NCc1ccc(Cn3c(=O)sn(-c4ccccc4)c3=O)cc1)=C\CC[C@@]1(C)O[C@@H]21`, for which the GI50 was 2.14 µM in the test on BT-549 breast; 1.74 µM with NCI-H522 lung; 2.21 µM with SF-268 CNS; 8.52 µM in the test on SF-295 CNS; 1.75 µM in the test on RXF 393 renal; 2.37 µM in the test on U251 CNS. The GI50 with OVCAR-3 ovarian is 1.68 µM; with SK-MEL-28 melanoma, 1.7 µM; with UO-31 renal it was 1.68 µM; in the test on CCRF-CEM leukemia it was 0.833 µM. The TGI in the test with BT-549 breast came out at 5 µM; in the test on NCI-H522 lung, 3.48 µM; in the test with SF-268 CNS, 5 µM; with SF-295 CNS, 21.8 µM; with RXF 393 renal, 3.4 µM; in the test with U251 CNS, 5.28 µM. In addition, the TGI in the test with OVCAR-3 ovarian is 3.12 µM; in the test with SK-MEL-28 melanoma it was 3.41 µM; in the test with UO-31 renal it was 3.16 µM; in the test on CCRF-CEM leukemia, more than 100 µM.

Regarding `CC(C)=CCCC(C)C1=C(O)C(=O)C(C)=CC1=O` (stereo not drawn), the TGI was 30.2 µM with BT-549 breast; 4.48 µM in the test with NCI-H522 lung; 56.6 µM with SF-268 CNS; more than 100 µM with SF-295 CNS; 17.8 µM in the test on RXF 393 renal; more than 56.1 µM in the test on U251 CNS. Besides, the TGI was 18.3 µM with OVCAR-3 ovarian, more than 42.4 µM with SK-MEL-28 melanoma, 21.3 µM in the test on UO-31 renal and more than 20.5 µM in the test with CCRF-CEM leukemia.

For `COc1cc(-c2csc(NC(=O)Nc3cc(Cl)cc(Cl)c3)n2)cc(OC)c1OC`, the GI50 in the test with BT-549 breast is 2.2 µM; with NCI-H522 lung, 2.05 µM; with SF-268 CNS it was 2.81 µM; with SF-295 CNS, 1.55 µM; with RXF 393 renal, 1.73 µM; with U251 CNS, 1.68 µM. Besides, the GI50 in the test on OVCAR-3 ovarian is 1.8 µM; in the test with SK-MEL-28 melanoma, 2.17 µM; with UO-31 renal, 1.67 µM; in the test with CCRF-CEM leukemia, 3.41 µM. Further, the TGI in the test with BT-549 breast is 4.65 µM; with NCI-H522 lung, 7.09 µM; in the test with SF-268 CNS, 10.6 µM; with SF-295 CNS, 3.01 µM; in the test on RXF 393 renal it was 3.76 µM; in the test on U251 CNS, 3.15 µM. Besides, the TGI with OVCAR-3 ovarian was 3.26 µM; with SK-MEL-28 melanoma, 5.43 µM; with UO-31 renal, 3.3 µM; with CCRF-CEM leukemia, more than 100 µM.

Consider `Cc1c2oc3c(C)ccc(C(=O)NC4C(=O)NC(C(C)C)C(=O)N5CCCC5C(=O)N(C)CC(=O)N(C)C(Cc5ccccc5)C(=O)OC4C)c3nc-2c(C(=O)NC2C(=O)NC(C(C)C)C(=O)N3CCCC3C(=O)N(C)CC(=O)N(C)C(Cc3ccccc3)C(=O)OC2C)c(N)c1=O` (stereo not drawn) (I: TVP[Sar][NMeF] / II: TVP[Sar][NMeF]; ester I:1-I:C, II:1-II:C; linker I:N-II:N via Actinocin(9to1); configuration not given here), for which the TGI with BT-549 breast is 0.151 µM; in the test on NCI-H522 lung, 0.0201 µM; with SF-268 CNS, more than 0.674 µM; in the test on SF-295 CNS, < 0.0141 µM and 0.108 µM; in the test with RXF 393 renal it was < 0.01 µM and 0.0305 µM; in the test with U251 CNS it was < 0.0435 µM and 0.159 µM. The TGI with OVCAR-3 ovarian is < 0.01 µM and 0.0453 µM; in the test with SK-MEL-28 melanoma, 0.06 µM; in the test with CCRF-CEM leukemia, 0.0102 µM. Besides, the GI50 in the test with NCI-H522 lung was 0.00155 µM; in the test on U251 CNS, < 0.01 µM and 0.0022 µM; in the test on UO-31 renal, < 0.01 µM and 0.0968 µM; with CCRF-CEM leukemia it was 0.000459 µM.

For the compound `O=Nc1c(-c2c(O)[nH]c3ccc(Br)cc23)[nH]c2ccccc12`, the GI50 with BT-549 breast is 4.57 µM; in the test on NCI-H522 lung, 3.35 µM; in the test on SF-268 CNS, 3.75 µM; in the test with SF-295 CNS it was 9.8 µM; in the test with RXF 393 renal, 3.62 µM; in the test on U251 CNS it was 4.83 µM. For the same compound, the GI50 in the test with OVCAR-3 ovarian is 4.03 µM; in the test on SK-MEL-28 melanoma, 9.12 µM; in the test with UO-31 renal, 2.81 µM; with CCRF-CEM leukemia, 3.22 µM. The TGI in the test on BT-549 breast was 20.2 µM; in the test on NCI-H522 lung it was 47.6 µM; with SF-268 CNS, 22.6 µM; in the test on SF-295 CNS, 54.1 µM; with RXF 393 renal it was more than 100 µM; in the test on U251 CNS, 23.1 µM. Further, the TGI with OVCAR-3 ovarian is 67.3 µM; with SK-MEL-28 melanoma it was more than 100 µM; in the test on UO-31 renal, more than 100 µM; with CCRF-CEM leukemia it was 16.8 µM.

(Values after PubChem BioAssay (NCI).)
